# Measurements: PubChem BioAssay (NCI)
#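 Here, GI50 denotes the concentration required for 50% inhibition of growth. TGI denotes the concentration required for complete inhibition of growth.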
# Legend:
# Assay in all cases: DTP human tumour cell line panel, 384-well format
# [1] = test system: MDA-MB-435 melanoma
# [2] = test system: SK-OV-3 ovarian
# [3] = test system: SK-MEL-28 melanoma
# [4] = test system: MDA-MB-231 breast
# [5] = test system: NCI/ADR-RES ovarian
# [6] = test system: M14 melanoma
# [7] = test system: HCT-15 colon
# [8] = test system: MOLT-4 leukemia
# [9] = test system: NCI-H226 lung
# [10] = test system: CCRF-CEM leukemia
# [11] = test system: HT29 colon
# [12] = test system: HOP-62 NSCLC
# [13] = test system: BT-549 breast
# [14] = test system: SK-MEL-5 melanoma
# [15] = test system: HL-60(TB) leukemia
# [16] = test system: K-562 leukemia
# [17] = test system: SNB-75 CNS
# [18] = test system: MCF7 breast
# [19] = test system: SNB-19 CNS
# [20] = test system: HCC-2998 colon
# [21] = test system: HOP-92 NSCLC
# [22] = test system: IGROV1 ovarian
# [23] = test system: OVCAR-5 ovarian
# [24] = test system: NCI-H460 NSCLC
# [25] = test system: UO-31 renal
# [26] = test system: 786-0 renal
# [27] = test system: CAKI-1 renal
# [28] = test system: SN12C renal
# [29] = test system: RXF 393 renal
# [30] = test system: RPMI-8226 leukemia
# [31] = test system: SK-MEL-2 melanoma
# [32] = test system: NCI-H522 lung
# [33] = test system: OVCAR-4 ovarian
# [34] = test system: PC-3 prostate
# [35] = test system: ACHN renal
# [36] = test system: U251 glioblastoma
# [37] = test system: DU-145 prostate
# [38] = test system: OVCAR-8 ovarian
# [39] = test system: KM12 colon
# [40] = test system: LOX IMVI melanoma
# [41] = test system: SW-620 colon
# [42] = test system: SF-295 CNS
# [43] = test system: HS 578T breast
# [44] = test system: A549 NSCLC
# [45] = test system: A498 renal
# [46] = test system: NCI-H322M lung
# [47] = test system: UACC-257 melanoma
# [48] = test system: EKVX NSCLC
# [49] = test system: HCT-116 colon
# [50] = test system: MALME-3M melanoma
# [51] = test system: OVCAR-3 ovarian
# [52] = test system: SF-268 CNS
# [53] = test system: TK-10 renal
# [54] = test system: COLO 205 colon
# [55] = test system: UACC-62 melanoma
# [56] = test system: MDA-MB-468 breast
# [57] = test system: T-47D breast
# [58] = test system: SF-539 CNS
# [59] = test system: NCI-H23 lung
# [60] = test system: SR leukemia
compound,measurement,setting,value
CNC(=O)c1cccc2cc(Oc3ccnc4cc(OCC5(N)CC5)c(OC)cc34)ccc12,GI50,[1],2.63 µM
same,TGI,[1],7.43 µM
same,GI50,[2],3.01 µM
same,TGI,[2],11.6 µM
same,GI50,[3],12.1 µM
same,TGI,[3],24.6 µM
same,GI50,[4],3.64 µM
same,TGI,[4],14.4 µM
same,GI50,[5],13.3 µM
same,TGI,[5],27 µM
same,GI50,[6],3.97 µM
same,TGI,[6],14.3 µM
same,GI50,[7],3.87 µM
same,TGI,[7],13.1 µM
same,GI50,[8],1.2 µM
same,TGI,[8],2.45 µM
same,GI50,[9],1.03 µM
same,TGI,[9],4.73 µM
same,GI50,[10],1.67 µM
same,TGI,[10],3.23 µM
same,GI50,[11],5.88 µM
same,TGI,[11],17.9 µM
same,GI50,[12],2.91 µM
same,TGI,[12],15.5 µM
same,GI50,[13],1.78 µM
same,TGI,[13],8.85 µM
same,GI50,[14],2.3 µM
same,TGI,[14],8.66 µM
same,GI50,[15],2.28 µM
same,TGI,[15],3.75 µM
same,GI50,[16],1.7 µM
same,TGI,[16],3.59 µM
same,GI50,[17],1.02 µM
same,TGI,[17],9.33 µM
same,GI50,[18],2.37 µM
same,TGI,[18],10.8 µM
same,GI50,[19],3.89 µM
same,TGI,[19],15.7 µM
same,GI50,[20],5.53 µM
same,TGI,[20],16 µM
same,GI50,[21],4.13 µM
same,TGI,[21],15.2 µM
same,GI50,[22],5.36 µM
same,TGI,[22],17.5 µM
same,GI50,[23],5.37 µM
same,TGI,[23],16.8 µM
same,GI50,[24],2.74 µM
same,TGI,[24],7.12 µM
same,GI50,[25],3.17 µM
same,TGI,[25],10.9 µM
same,GI50,[26],1.77 µM
same,TGI,[26],3.49 µM
same,GI50,[27],2.02 µM
same,TGI,[27],5.35 µM
same,GI50,[28],2.55 µM
same,TGI,[28],8.63 µM
same,GI50,[29],1.64 µM
same,TGI,[29],4.39 µM
same,GI50,[30],1.98 µM
same,TGI,[30],5.13 µM
same,GI50,[31],1.89 µM
same,TGI,[31],4.35 µM
same,GI50,[32],2.75 µM
same,TGI,[32],9.57 µM
same,GI50,[33],1.48 µM
same,TGI,[33],4.04 µM
same,GI50,[34],4.42 µM
same,TGI,[34],16.2 µM
same,GI50,[35],1.67 µM
same,TGI,[35],3.37 µM
same,GI50,[36],3.73 µM
same,TGI,[36],14.9 µM
same,GI50,[37],5.43 µM
same,TGI,[37],17.6 µM
same,GI50,[38],4.05 µM
same,TGI,[38],16.1 µM
same,GI50,[39],3.83 µM
same,TGI,[39],15.1 µM
same,GI50,[40],2.41 µM
same,TGI,[40],5.84 µM
same,GI50,[41],4.12 µM
same,TGI,[41],15 µM
same,GI50,[42],6.14 µM
same,TGI,[42],18.7 µM
same,GI50,[43],1.23 µM
same,TGI,[43],4.08 µM
same,GI50,[44],4.22 µM
same,TGI,[44],14.6 µM
same,GI50,[45],2.5 µM
same,TGI,[45],6.93 µM
same,GI50,[46],6.8 µM
same,TGI,[46],19.4 µM
same,GI50,[47],4.04 µM
same,TGI,[47],14.2 µM
same,GI50,[48],3.66 µM
same,TGI,[48],14.8 µM
same,GI50,[49],1.98 µM
same,TGI,[49],3.84 µM
same,GI50,[50],4.05 µM
same,TGI,[50],15.7 µM
same,GI50,[51],2.23 µM
same,TGI,[51],5.94 µM
same,GI50,[52],4.31 µM
same,TGI,[52],17.9 µM
same,GI50,[53],2.55 µM
same,TGI,[53],6.52 µM
same,GI50,[54],3.22 µM
same,TGI,[54],10.2 µM
same,GI50,[55],2.37 µM
same,TGI,[55],6.72 µM
same,GI50,[56],2.38 µM
same,TGI,[56],5.54 µM
same,GI50,[57],2.14 µM
same,TGI,[57],7.39 µM
same,GI50,[58],0.621 µM
same,TGI,[58],4.94 µM
same,GI50,[59],4.73 µM
same,TGI,[59],16.4 µM
COc1cc(Nc2c(C#N)cnc3cc(OCCCN4CCN(C)CC4)c(OC)cc23)c(Cl)cc1Cl,GI50,[1],2.12 µM
same,TGI,[1],5.43 µM
same,GI50,[2],0.416 µM
same,TGI,[2],4.21 µM
same,GI50,[3],1.56 µM
same,TGI,[3],2.98 µM
same,GI50,[4],1.41 µM
same,TGI,[4],2.76 µM
same,GI50,[5],2.14 µM
same,TGI,[5],4.66 µM
same,GI50,[6],1.16 µM
same,TGI,[6],2.49 µM
same,GI50,[7],1.14 µM
same,TGI,[7],3.74 µM
same,GI50,[8],0.612 µM
same,TGI,[8],2 µM
same,GI50,[9],2.77 µM
same,TGI,[9],6.25 µM
same,GI50,[10],2.04 µM
same,TGI,[10],3.64 µM
same,GI50,[11],1.43 µM
same,TGI,[11],3.59 µM
same,GI50,[12],1.69 µM
same,TGI,[12],5.02 µM
same,GI50,[13],1.21 µM
same,TGI,[13],3.31 µM
same,GI50,[14],1.24 µM
same,TGI,[14],2.54 µM
same,GI50,[15],1.39 µM
same,TGI,[15],2.72 µM
same,GI50,[17],0.951 µM
same,TGI,[17],3.32 µM
same,GI50,[18],2.4 µM
same,TGI,[18],5.38 µM
same,GI50,[19],3.51 µM
same,TGI,[19],9.26 µM
same,GI50,[20],2.2 µM
same,TGI,[20],4.35 µM
same,GI50,[21],1.1 µM
same,TGI,[21],2.79 µM
same,GI50,[22],0.146 µM
same,TGI,[22],0.899 µM
same,GI50,[23],1.84 µM
same,TGI,[23],6.66 µM
same,GI50,[24],1.62 µM
same,TGI,[24],5.14 µM
same,GI50,[25],0.476 µM
same,TGI,[25],2.56 µM
same,GI50,[26],0.764 µM
same,TGI,[26],2.58 µM
same,GI50,[27],0.431 µM
same,TGI,[27],2.09 µM
same,GI50,[28],0.301 µM
same,TGI,[28],4.14 µM
same,GI50,[29],0.368 µM
same,TGI,[29],1.46 µM
same,GI50,[30],0.898 µM
same,TGI,[30],2.35 µM
same,GI50,[32],0.133 µM
same,TGI,[32],2.78 µM
same,GI50,[33],1.85 µM
same,TGI,[33],4.18 µM
same,GI50,[34],2.58 µM
same,TGI,[34],7.12 µM
same,GI50,[35],0.443 µM
same,TGI,[35],4.05 µM
same,GI50,[36],2.1 µM
same,TGI,[36],4.7 µM
same,GI50,[37],0.645 µM
same,TGI,[37],2.85 µM
same,GI50,[38],1.94 µM
same,TGI,[38],5.02 µM
same,GI50,[39],0.448 µM
same,TGI,[39],4.03 µM
same,GI50,[40],0.637 µM
same,TGI,[40],2.13 µM
same,GI50,[41],2.62 µM
same,TGI,[41],5.86 µM
same,GI50,[42],2.68 µM
same,TGI,[42],5.77 µM
same,GI50,[43],1.29 µM
same,TGI,[43],4.24 µM
same,GI50,[44],1.6 µM
same,TGI,[44],4.64 µM
same,GI50,[45],0.806 µM
same,TGI,[45],3.61 µM
same,GI50,[46],0.423 µM
same,TGI,[46],2.36 µM
same,GI50,[47],1.61 µM
same,TGI,[47],2.98 µM
same,GI50,[48],1.57 µM
same,TGI,[48],5.85 µM
same,GI50,[49],1.15 µM
same,TGI,[49],2.57 µM
same,GI50,[50],1.04 µM
same,TGI,[50],2.47 µM
same,GI50,[51],1.49 µM
same,TGI,[51],5.02 µM
same,GI50,[52],1.85 µM
same,TGI,[52],5.52 µM
same,GI50,[53],0.584 µM
same,TGI,[53],3.52 µM
same,GI50,[54],2.01 µM
same,TGI,[54],5.45 µM
same,GI50,[55],1.44 µM
same,TGI,[55],2.88 µM
same,GI50,[56],0.998 µM
same,TGI,[56],2.66 µM
same,GI50,[57],1.34 µM
same,TGI,[57],5.41 µM
same,GI50,[58],1.55 µM
same,TGI,[58],2.99 µM
same,GI50,[59],1.69 µM
same,TGI,[59],4.26 µM
same,GI50,[60],1.37 µM
same,TGI,[60],2.68 µM
